Measured values reported in patent US20220354949A1, “NOVEL COMPOUNDS” (XENIOPRO GmbH, priority 2018, published 2022).

What was measured:
Type in all cases: cell-based
[1] = system: TANOUE cells (human B cell leukemia cells); experiment: Proliferation assay (alamarBlue) with TANOUE cells; details: compound at 20 μM
From the text: (§1) The antiproliferative activities of compounds falling under formula (Ia), (Ib) and (Ic), respectively, were investigated on cells or cell lines originating from a disorder of the haematopoietic system, including the myeloid cell compartment and the lymphoid cell compartment (T-cells and B-cells), the neuroendocrine system, the cervix, the breast, the ovaries, the lung, the gastrointestinal tract, and the mucosal epithelium, as well as from the skin epithelium and from the muscle. To this end, HL-60 cells, NB-4 cells, HH cells, RPMI-8402 cells, TANOUE cells, TT cells, HeLa cells, MDA-MB-231 cells, FU-OV-1 cells, LOU-NH91 cells, 23132/87 cells, CAL-27 cells, BHY cells, SCC-25 cells, A-431 cells, human primary epidermal keratinocytes (HPEK), and C2C12 cells were seeded into 96-well plates suitable for fluorescence assays (CORNING #3598) at following initial cell numbers: 1000 cells per well for HL-60; 1000 cells per well for NB-4; 5000 cells per well for HH; 5000 cells per well for RPMI-8402; 1500 cells per well for TANOUE; 9000 cells per well for TT; 2000 cells per well for HeLa; 3000 cells per well for MDA-MB-231; 3000 cells per well for FU-OV-1; 4000 cells per well for LOU-NH91; 2000 cells per well for 23132/87; 2000 cells per well for CAL-27; 1500 cells per well for BHY; 1500 cells per well for SCC-25; 700 cells per well for A-431; 1000 cells per well for HPEK; 500 cells per well for C2C12. The cells were treated with compounds at indicated final concentrations (diluted from the 1000× stock-solutions in DMSO to a final DMSO concentration of 0.1% v/v in H2O (Water For Injection, WFI, Fisherscientific #10378939)) or with the empty carrier DMSO at 0.1% v/v as control for 5 days. At day 5 after starting the treatments the cells were subjected to the alamarBlue® Proliferation Assay (Bio-Rad Serotec GmbH, BUF012B) according to the protocol of the manufacturer. The readout was taken with a multi-well plate-reader in the fluorescence mode with applying a filter for excitation at 560 nm (band width 10 nm) and for emission at 590 nm (band width 10 nm). Control treatments for growth inhibition with commercial compounds such as Methotrexate (MTREX) and Resveratrol (RES) were included on every plate. Some of the test compounds of the present invention were obtained and applied as their salts. According cases are indicated in the column “Specification” in Table 55 to Table 92 and by their sum formula in Table 93.
(§2) The assays were performed in duplicate or more replicates of independent single experiments each containing a six-fold replicate for every condition. For every individual plate, the measured fluorescence intensity values of the conditions with compound treatment were normalized against the corresponding equally weighted arithmetic mean of the fluorescence intensity values of the six DMSO treated control wells in order to obtain the relative values to a baseline level of 1.0.
(§3) Two independent outlier analyses were performed according to the methods by Peirce and Chauvenet (Ross, Journal of Engineering Technology 2003, 1-12). Outliers confirmed by at least one of the methods were excluded from the calculations but not more than one value out of six per compound within a single experiment. The weighted arithmetic mean (here abbreviated as AVEw) for each compound was calculated from the normalized values over all independent replicates of the single experiments comprising the six replicates each. The corresponding standard deviation for the weighted arithmetic mean was calculated according to the method described by Bronstein et al. (Bronstein, Semendjajew, Musiol, Müihlig, Taschenbuch der Mathematik, 5th edition 2001 (German), publisher: Verlag Harri Deutsch, Frankfurt am Main and Thun) and was combined with the Gauß' error propagation associated with the performed calculation for the normalization. The resulting standard deviation is herein referred to as “combined standard deviation”. […]

[2] = system: CAL-27 cells (human tongue squamous cell carcinoma cells); experiment: Proliferation assay (alamarBlue) with CAL-27 cells; details: 20 μM
From the text: as §1, §2, §3

[3] = system: human epidermal keratinocyte progenitors (HPEKp, pooled); experiment: Proliferation assay (alamarBlue) with HPEKp cells; details: control at 20 μM
From the text: (§4) The antiproliferative activities of compounds falling under formula (Ia), (Ib) and (Ic), respectively, were investigated on cells or cell lines originating from a disorder of the haematopoietic system, including the myeloid cell compartment and the lymphoid cell compartment (T-cells and B-cells), the neuroendocrine system, the cervix, the breast, the ovaries, the lung, the gastrointestinal tract, and the mucosal epithelium, as well as from the skin epithelium and from the muscle. To this end, HL-60 cells, NB-4 cells, HH cells, RPMI-8402 cells, TANOUE cells, TT cells, HeLa cells, MDA-MB-231 cells, FU-OV-1 cells, LOU-NH91 cells, 23132/87 cells, CAL-27 cells, BHY cells, SCC-25 cells, A-431 cells, human primary epidermal keratinocytes (HPEK), and C2C12 cells were seeded into 96-well plates suitable for fluorescence assays (CORNING #3598) at following initial cell numbers: 1000 cells per well for HL-60; 1000 cells per well for NB-4; 5000 cells per well for HH; 5000 cells per well for RPMI-8402; 1500 cells per well for TANOUE; 9000 cells per well for TT; 2000 cells per well for HeLa; 3000 cells per well for MDA-MB-231; 3000 cells per well for FU-OV-1; 4000 cells per well for LOU-NH91; 2000 cells per well for 23132/87; 2000 cells per well for CAL-27; 1500 cells per well for BHY; 1500 cells per well for SCC-25; 700 cells per well for A-431; 1000 cells per well for HPEK; 500 cells per well for C2C12. […] The readout was taken with a multi-well plate-reader in the fluorescence mode with applying a filter for excitation at 560 nm (band width 10 nm) and for emission at 590 nm (band width 10 nm). […]
as §2, with “1.0. […]” for “1.0.”

[4] = system: FU-OV-1 cells (human ovarian carcinoma cells); experiment: Proliferation assay (alamarBlue) with FU-OV-1 cells; details: compound at 20 μM
From the text: as §1, §2, §3

[5] = system: HH cells (human cutaneous T-cell lymphoma cells); experiment: Proliferation assay (alamarBlue) with HH cells; details: 20 μM
From the text: as §1, §2, §3

[6] = system: HeLa cells (human cervical adenocarcinoma cells); experiment: Proliferation assay (alamarBlue) with HeLa cells; details: compound at 20 μM
From the text: as §1, §2, §3

[7] = system: A-431 cells (human epidermoid squamous cell carcinoma cells); experiment: Proliferation assay (alamarBlue) with A-431 cells; details: 20 μM
From the text: as §1, §2, §3

[8] = system: C2C12 cells (murine myoblast cells); experiment: Proliferation assay (alamarBlue) with C2C12 cells; details: compounds and controls at 20 μM
From the text: as §4
as §2, with “1.0. […]” for “1.0.”

[9] = system: TT cells (human medullary thyroid carcinoma cells); experiment: Proliferation assay (alamarBlue) with TT cells; details: compound at 20 μM
From the text: as §1, §2, §3

[10] = system: NB-4 cells (human acute promyelocytic leukemia cells); experiment: Proliferation assay (alamarBlue) with NB-4 cells; details: 20 μM
From the text: as §1, §2, §3

[11] = system: HL-60 cells (human acute myeloid leukemia cells); experiment: Proliferation assay (alamarBlue) with HL-60 cells; details: 20 μM
From the text: as §1, §2, §3

[12] = system: 23132/87 cells (human gastric adenocarcinoma cells); experiment: Proliferation assay (alamarBlue) with 23132/87 cells; details: 20 μM
From the text: as §1, §2, §3

CN(Cc1cnc2nc(N)nc(N)c2n1)c1ccc(C(=O)N[C@@H](CCC(=O)O)C(=O)O)cc1 [MTREX, Methotrexate]
activity at 20 µM ([1]; Homo sapiens, B-cell, Table 63 (novel compounds), read-out: Activity Range: weighted arithmetic mean (AVEw) of normalized fluorescence intensity relative to DMSO basis level 1.0): 10%
Activity Range: weighted arithmetic mean (AVEw) of normalized fluorescence intensity relative to DMSO basis level 1.0 ([1]; Table 64 (compounds of PCT/EP2018/054686)): 0.1 ± 0.0
Activity Range (weighted arithmetic mean AVEw of normalized fluorescence intensity, relative to DMSO basis level 1.0) ([2]; Table 77 (novel compounds)): 0.1 ± 0.0
Activity Range (weighted arithmetic mean AVEw of normalized fluorescence intensity, relative to DMSO basis level 1.0) ([2]; Table 78 (compounds disclosed in PCT/EP2018/054686)): 0.1 ± 0.0
Activity Range: weighted arithmetic mean (AVEw) of normalized fluorescence intensity, relative to DMSO basis level of 1.0 [3]: 0.9 ± 0.0
Activity Range: weighted arithmetic mean (AVEw) of normalized fluorescence intensity relative to DMSO basis level 1.0 ([4]; Table 71 (novel compounds)): 1.0 ± 0.0
Activity Range: weighted arithmetic mean (AVEw) of normalized fluorescence intensity relative to DMSO basis level 1.0 ([4]; Table 72 (compounds of PCT/EP2018/054686)): 1.0 ± 0.0
Activity Range: weighted arithmetic mean (AVEw) of normalized fluorescence intensity, proliferation assay with HH cells ([5]; relative to DMSO basis level 1.0, Table 59 (novel compounds)): 0.4 ± 0.1
Activity Range: weighted arithmetic mean (AVEw) of normalized fluorescence intensity, proliferation assay with HH cells ([5]; relative to DMSO basis level 1.0, Table 60 (compounds disclosed in PCT/EP2018/054686)): 0.4 ± 0.1
Activity Range: weighted arithmetic mean (AVEw) of normalized fluorescence intensity relative to DMSO basis level 1.0 ([6]; Table 67 (novel compounds)): 0.4 ± 0.0
Activity Range: weighted arithmetic mean (AVEw) of normalized fluorescence intensity relative to DMSO basis level 1.0 ([6]; Table 68 (compounds of PCT/EP2018/054686)): 0.4 ± 0.0
Activity Range (weighted arithmetic mean AVEw of normalized fluorescence intensity, relative to DMSO basis level 1.0) ([7]; Table 84 (novel compounds)): 0.2 ± 0.1
Activity Range (weighted arithmetic mean AVEw of normalized fluorescence intensity, relative to DMSO basis level 1.0) ([7]; Table 85 (compounds disclosed in PCT/EP2018/054686)): 0.2 ± 0.1
Activity Range: weighted arithmetic mean (AVEw) of normalized fluorescence intensity, relative to DMSO basis level of 1.0 [8]: 0.1 ± 0.0
Activity Range: weighted arithmetic mean (AVEw) of normalized fluorescence intensity relative to DMSO basis level 1.0 ([9]; Table 65 (novel compounds)): 1.0 ± 0.0
Activity Range: weighted arithmetic mean (AVEw) of normalized fluorescence intensity relative to DMSO basis level 1.0 ([9]; Table 66 (compounds of PCT/EP2018/054686)): 1 ± 0.0
Activity Range: weighted arithmetic mean (AVEw) of normalized fluorescence intensity, proliferation assay with NB-4 cells ([10]; relative to DMSO basis level 1.0, Table 57 (novel compounds)): 0.1 ± 0.0
Activity Range: weighted arithmetic mean (AVEw) of normalized fluorescence intensity, proliferation assay with NB-4 cells ([10]; relative to DMSO basis level 1.0, Table 58 (compounds disclosed in PCT/EP2018/054686)): 0.1 ± 0.0
Activity Range: weighted arithmetic mean (AVEw) of normalized fluorescence intensity, proliferation assay with HL-60 cells ([11]; relative to DMSO basis level 1.0, Table 55 (novel compounds)): 0.1 ± 0.1
Activity Range: weighted arithmetic mean (AVEw) of normalized fluorescence intensity, proliferation assay with HL-60 cells ([11]; relative to DMSO basis level 1.0, Table 56 (compounds disclosed in PCT/EP2018/054686)): 0.1 ± 0.1
Activity Range (weighted arithmetic mean AVEw of normalized fluorescence intensity, relative to DMSO basis level 1.0) ([12]; Table 75 (novel compounds)): 0.3 ± 0.0
Activity Range (weighted arithmetic mean AVEw of normalized fluorescence intensity, relative to DMSO basis level 1.0) ([12]; Table 76 (compounds disclosed in PCT/EP2018/054686)): 0.3 ± 0.0
